Measurements reported in patent publication US20120202690A1, “HERBICIDAL COMPOUNDS” (SYNGENTA LIMITED, priority 2009, published 2012).

What was measured:
Format in all cases: in vivo
[1] = tested on: Solanum nigrum (SOLNI); experiment: Pre-emergence biological efficacy, glasshouse, 1000 g/ha, evaluated after 13 days (100=total damage to plant; 0=no damage to plant); details: Solanum nigrum, 312 h, read-out: Percentage damage caused to weed species, pre-emergence, SOLNI; for pest or weed control at 1000 g/ha: rate 1,000 g/ha
Outline: (§1)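 Seeds were sown in standard soil in pots, then grown in a controlled glasshouse at 24/16° C. day/night, 14 hours light and 65% humidity, with watering twice daily.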

[2] = tested on: Setaria faberi (SETFA); experiment: as above; details: Setaria faberi, 312 h, read-out: Percentage damage caused to weed species, pre-emergence, SETFA; for pest or weed control at 1000 g/ha: rate 1,000 g/ha
Outline: as §1

[3] = tested on: Echinochloa crus-galli (ECHCG); experiment: as above; details: Echinochloa crus-galli, 312 h, read-out: Percentage damage caused to weed species, pre-emergence, ECHCG; for pest or weed control at 1000 g/ha: rate 1,000 g/ha
Outline: as §1

[4] = tested on: Alopecurus myosuroides (ALOMY); experiment: as above; details: Alopecurus myosuroides, 312 h, read-out: Percentage damage caused to weed species, pre-emergence, ALOMY; for pest or weed control at 1000 g/ha: rate 1,000 g/ha
Outline: as §1

[5] = tested on: Amaranthus retroflexus (AMARE); experiment: as above; details: Amaranthus retroflexus, 312 h, read-out: Percentage damage caused to weed species, pre-emergence, AMARE; for pest or weed control at 1000 g/ha: rate 1,000 g/ha
Outline: as §1

[6] = tested on: Ipomoea hederaceae (IPOHE); experiment: as above; details: Ipomoea, 312 h, read-out: Percentage damage caused to weed species, pre-emergence, IPOHE; for pest or weed control at 1000 g/ha: rate 1,000 g/ha
Outline: as §1

[7] = tested on: Solanum nigrum (SOLNI); experiment: Post-emergence biological efficacy, glasshouse, 500 or 1000 g/ha, evaluated after 13 days (100=total damage to plant; 0=no damage to plant); details: Solanum nigrum, 312 h, read-out: Percentage damage caused to weed species, post-emergence, SOLNI; for pest or weed control at 1000 g/ha: rate 1,000 g/ha
Outline: (§2)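 Sow seeds in standard potting soil. Treat after emergence. Keep treated plants in the glasshouse at 24° C. by day and 16° C. by night, with a 14-hour photoperiod, 65% humidity and two waterings daily.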

[8] = tested on: Echinochloa crusgaffi (ECHCG); experiment: as above; details: Echinochloa, 312 h, read-out: Percentage damage caused to weed species, post-emergence, ECHCG; for pest or weed control at 1000 g/ha: rate 1,000 g/ha
Outline: as §2

[9] = tested on: Setaria faberi (SETFA); experiment: as above; details: Setaria faberi, 312 h, read-out: Percentage damage caused to weed species, post-emergence, SETFA; for pest or weed control at 1000 g/ha: rate 1,000 g/ha
Outline: as §2

[10] = tested on: Alopecurus myosuroides (ALOMY); experiment: as above; details: Alopecurus myosuroides, 312 h, read-out: Percentage damage caused to weed species, post-emergence, ALOMY; for pest or weed control at 1000 g/ha: rate 1,000 g/ha
Outline: as §2

[11] = tested on: Amaranthus retroflexus (AMARE); experiment: as above; details: Amaranthus retroflexus, 312 h, read-out: Percentage damage caused to weed species, post-emergence, AMARE; for pest or weed control at 1000 g/ha: rate 1,000 g/ha
Outline: as §2

[12] = tested on: Ipomoea hederaceae (IPOHE); experiment: as above; details: Ipomoea, 312 h, read-out: Percentage damage caused to weed species, post-emergence, IPOHE; for pest or weed control at 1000 g/ha: rate 1,000 g/ha
Outline: as §2

COC(=O)c1nc(-c2ccc(Cl)c(OC)c2F)cc2c1c(C)cn2S(=O)(=O)c1ccc(C)cc1 [Compound 40-64, 6-(4-Chloro-2-fluoro-3-methoxyphenyl)-4-methoxycarbonyl-3-methyl-1-(4-methylphenyl-sulphonyl)-1H-pyrrolo[3,2-c]pyridine]
pest or weed control at 1000 g/ha [1]: 40% | pest or weed control at 1000 g/ha [2]: 10% | pest or weed control at 1000 g/ha [3]: 10% | pest or weed control at 1000 g/ha [4]: 0% | pest or weed control at 1000 g/ha [5]: 0% | pest or weed control at 1000 g/ha [6]: 0% | pest or weed control at 1000 g/ha [7]: 60% | pest or weed control at 1000 g/ha [8]: 0% | pest or weed control at 1000 g/ha [9]: 0% | pest or weed control at 1000 g/ha [10]: 0% | pest or weed control at 1000 g/ha [11]: 0% | pest or weed control at 1000 g/ha [12]: 50%

C=C1c2c(nc(-c3ccc(Cl)c(OC)c3F)nc2C(=O)OC)NCC1(C)C [Compound 71-180, 2-(4-Chloro-2-fluoro-3-methoxyphenyl)-6,6-dimethyl-4-methoxycarbonyl-5-methylene-5,6,7,8-tetrahydro-pyrido[2,3-d]pyrimidine]
pest or weed control at 500 g/ha ([1]; rate 500 g/ha): 0% | pest or weed control at 500 g/ha ([2]; rate 500 g/ha): 0% | pest or weed control at 500 g/ha ([3]; rate 500 g/ha): 0% | pest or weed control at 500 g/ha ([4]; rate 500 g/ha): 0% | pest or weed control at 500 g/ha ([5]; rate 500 g/ha): 0% | pest or weed control at 500 g/ha ([6]; rate 500 g/ha): 0% | pest or weed control at 500 g/ha ([7]; rate 500 g/ha): 20% | pest or weed control at 500 g/ha ([8]; rate 500 g/ha): 0% | pest or weed control at 500 g/ha ([9]; rate 500 g/ha): 0% | pest or weed control at 500 g/ha ([10]; rate 500 g/ha): 0% | pest or weed control at 500 g/ha ([11]; rate 500 g/ha): 0% | pest or weed control at 500 g/ha ([12]; rate 500 g/ha): 40%

COC(=O)c1nc(-c2ccc(Cl)c(OC)c2F)nc2c1N(Cc1ccccc1)C(C)N2Cc1ccccc1 (stereo not drawn) [Compound 81-46, 2-(4-chloro-2-fluoro-3-methoxyphenyl)-7,9-dibenzyl-6-methoxycarbonyl-8-methyl-8,9-dihydro-7H-purine]
pest or weed control at 1000 g/ha [1]: 0% | pest or weed control at 1000 g/ha [2]: 0% | pest or weed control at 1000 g/ha [3]: 0% | pest or weed control at 1000 g/ha [4]: 0% | pest or weed control at 1000 g/ha [5]: 0% | pest or weed control at 1000 g/ha [6]: 0% | pest or weed control at 1000 g/ha [7]: 10% | pest or weed control at 1000 g/ha [8]: 0% | pest or weed control at 1000 g/ha [9]: 10% | pest or weed control at 1000 g/ha [10]: 0% | pest or weed control at 1000 g/ha [11]: 0% | pest or weed control at 1000 g/ha [12]: 0%

COC(=O)c1nc(-c2ccc(Cl)c(OC)c2F)nc2c1N(Cc1ccc(OC)cc1OC)C(C)N2Cc1ccc(OC)cc1OC (stereo not drawn) [Compound 83-48, 2-(4-Chloro-2-fluoro-3-methoxyphenyl)-7,9-bis(2,4-dimethoxyphenyl-methyl)-6-methoxycarbonyl-8-methyl-8,9-dihydro-7H-purine]
pest or weed control at 1000 g/ha [1]: 0% | pest or weed control at 1000 g/ha [2]: 0% | pest or weed control at 1000 g/ha [3]: 0% | pest or weed control at 1000 g/ha [4]: 0% | pest or weed control at 1000 g/ha [5]: 0% | pest or weed control at 1000 g/ha [6]: 0% | pest or weed control at 1000 g/ha [7]: 20% | pest or weed control at 1000 g/ha [8]: 20% | pest or weed control at 1000 g/ha [9]: 20% | pest or weed control at 1000 g/ha [10]: 20% | pest or weed control at 1000 g/ha [11]: 0% | pest or weed control at 1000 g/ha [12]: 10%

COC(=O)c1nc(C2CC2)nc2c1NC(c1ccccc1)C(c1ccccc1)N2 (stereo not drawn) [Compound 91-44, 2-cyclopropyl-6,7-diphenyl-4-methoxycarbonyl-5,6,7,8-tetrahydropteridine]
pest or weed control at 1000 g/ha [1]: 30% | pest or weed control at 1000 g/ha [2]: 0% | pest or weed control at 1000 g/ha [3]: 10% | pest or weed control at 1000 g/ha [4]: 30% | pest or weed control at 1000 g/ha [5]: 70% | pest or weed control at 1000 g/ha [6]: 20% | pest or weed control at 1000 g/ha [7]: 90% | pest or weed control at 1000 g/ha [8]: 50% | pest or weed control at 1000 g/ha [9]: 50% | pest or weed control at 1000 g/ha [10]: 20% | pest or weed control at 1000 g/ha [11]: 70% | pest or weed control at 1000 g/ha [12]: 60%

COC(=O)c1nc(-c2ccc(Cl)c(OC)c2F)nc2c1NC(C)C(C)N2 (stereo not drawn) [Compound 91-184, 2-(4-Chloro-2-fluoro-3-methoxyphenyl)-6,7-dimethyl-4-methoxy-carbonyl-5,6,7,8-tetrahydropteridine]
pest or weed control at 1000 g/ha [1]: 0% | pest or weed control at 1000 g/ha [2]: 0% | pest or weed control at 1000 g/ha [3]: 0% | pest or weed control at 1000 g/ha [4]: 0% | pest or weed control at 1000 g/ha [5]: 0% | pest or weed control at 1000 g/ha [6]: 0% | pest or weed control at 1000 g/ha [7]: 50% | pest or weed control at 1000 g/ha [8]: 30% | pest or weed control at 1000 g/ha [9]: 0% | pest or weed control at 1000 g/ha [10]: 0% | pest or weed control at 1000 g/ha [11]: 20% | pest or weed control at 1000 g/ha [12]: 70%

COc1c(Cl)ccc(-c2nc3c(c(C(=O)O)n2)NC(c2ccccc2)C(c2ccccc2)N3)c1F (stereo not drawn) [Compound 91-203, 4-Carboxy-2-(4-chloro-2-fluoro-3-methoxyphenyl)-6,7-diphenyl-5,6,7,8-tetrahydropteridine]
pest or weed control at 1000 g/ha [1]: 20% | pest or weed control at 1000 g/ha [2]: 0% | pest or weed control at 1000 g/ha [3]: 0% | pest or weed control at 1000 g/ha [4]: 0% | pest or weed control at 1000 g/ha [5]: 0% | pest or weed control at 1000 g/ha [6]: 10% | pest or weed control at 1000 g/ha [7]: 40% | pest or weed control at 1000 g/ha [8]: 0% | pest or weed control at 1000 g/ha [9]: 10% | pest or weed control at 1000 g/ha [10]: 0% | pest or weed control at 1000 g/ha [11]: 10% | pest or weed control at 1000 g/ha [12]: 10%

COC(=O)c1nc(-c2ccc(Cl)c(OC)c2F)nc2c1NC(c1ccccc1)C(c1ccccc1)N2 (stereo not drawn) [Compound 91-204, 2-(4-Chloro-2-fluoro-3-methoxyphenyl)-6,7-diphenyl-4-methoxycarbonyl-5,6,7,8-tetrahydropteridine]
pest or weed control at 1000 g/ha [1]: 10% | pest or weed control at 1000 g/ha [2]: 0% | pest or weed control at 1000 g/ha [3]: 0% | pest or weed control at 1000 g/ha [4]: 0% | pest or weed control at 1000 g/ha [5]: 20% | pest or weed control at 1000 g/ha [6]: 0% | pest or weed control at 1000 g/ha [7]: 80% | pest or weed control at 1000 g/ha [8]: 0% | pest or weed control at 1000 g/ha [9]: 0% | pest or weed control at 1000 g/ha [10]: 0% | pest or weed control at 1000 g/ha [11]: 50% | pest or weed control at 1000 g/ha [12]: 40%

COc1c(Cl)ccc(-c2nc3c(c(C(=O)O)n2)N[C@@H]2CCCC[C@H]2N3)c1F [Compound 91-207, (5aR,9aR)-4-Carboxy-2-(4-chloro-2-fluoro-3-methoxyphenyl)-5,5a,6,7,8,9,9a,10-octahydro-benzo[g]pteridine]
pest or weed control at 1000 g/ha [1]: 10% | pest or weed control at 1000 g/ha [2]: 10% | pest or weed control at 1000 g/ha [3]: 0% | pest or weed control at 1000 g/ha [4]: 0% | pest or weed control at 1000 g/ha [5]: 20% | pest or weed control at 1000 g/ha [6]: 0% | pest or weed control at 1000 g/ha [7]: 70% | pest or weed control at 1000 g/ha [8]: 0% | pest or weed control at 1000 g/ha [9]: 0% | pest or weed control at 1000 g/ha [10]: 0% | pest or weed control at 1000 g/ha [11]: 20% | pest or weed control at 1000 g/ha [12]: 60%

COc1c(Cl)ccc(-c2nc(C(=O)O)c3c(n2)N(C)CCN3C)c1F [Compound 92-163, 4-Carboxy-2-(4-chloro-2-fluoro-3-methoxyphenyl)-5,8-dimethyl-5,6,7,8-tetrahydropteridine]
pest or weed control at 1000 g/ha [1]: 0% | pest or weed control at 1000 g/ha [2]: 0% | pest or weed control at 1000 g/ha [3]: 0% | pest or weed control at 1000 g/ha [4]: 0% | pest or weed control at 1000 g/ha [5]: 0% | pest or weed control at 1000 g/ha [6]: 0% | pest or weed control at 1000 g/ha [7]: 10% | pest or weed control at 1000 g/ha [8]: 10% | pest or weed control at 1000 g/ha [9]: 10% | pest or weed control at 1000 g/ha [10]: 10% | pest or weed control at 1000 g/ha [11]: 0% | pest or weed control at 1000 g/ha [12]: 10%
